Test results as given in publication PMC7156458, “Synthetic biology based construction of biological activity-related library of fungal decalin-containing diterpenoid pyrones” (Nature Communications, 2020).

Molecular target: Aβ42 (Homo sapiens, UniProt P05067)
Experiment: Th-T (thioflavin-T) assay of Aβ42 aggregation
Format: biochemical
Settings: for Th-T fluorescence of Aβ42 with compound, mean of three wells (Fig. 7a source data): concentration 50, unit not given

Chain of Aβ42 (P05067 672-713): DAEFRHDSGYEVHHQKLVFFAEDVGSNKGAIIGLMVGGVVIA

C=C1CCC2C(C)(CCC=C(C)C)C(O)CCC2(C)C1Cc1c(OC)oc(C)c(C(=O)OC)c1=O (stereo not drawn) [Compound 14]
Th-T fluorescence of Aβ42 with compound, mean of three wells (Fig. 7a source data) (time-course reading M143): 0.7264
Th-T fluorescence of Aβ42 with compound, mean of three wells (Fig. 7a source data) (time-course reading M144): 0.7091
Th-T fluorescence of Aβ42 with compound, mean of three wells (Fig. 7a source data) (time-course reading M145): 0.7134
Th-T fluorescence of Aβ42 (sheet Fig. 7a), mean of three wells (head suffix _10 (concentration 10), reading M63): 2.709
Th-T fluorescence of Aβ42 (sheet Fig. 7a), mean of three wells (head suffix _10 (concentration 10), reading M64): 2.685
Th-T fluorescence of Aβ42 (sheet Fig. 7a), mean of three wells (head suffix _10 (concentration 10), reading M65): 2.69
Th-T fluorescence of Aβ42 (sheet Fig. 7a), mean of three wells (head suffix _10 (concentration 10), reading M66): 2.693
Th-T fluorescence of Aβ42 (sheet Fig. 7a), mean of three wells (head suffix _10 (concentration 10), reading M67): 2.707
Th-T fluorescence of Aβ42 (sheet Fig. 7a), mean of three wells (head suffix _10 (concentration 10), reading M68): 2.71
Th-T fluorescence of Aβ42 (sheet Fig. 7a), mean of three wells (head suffix _10 (concentration 10), reading M69): 2.6808
Th-T fluorescence of Aβ42 (sheet Fig. 7a), mean of three wells (head suffix _10 (concentration 10), reading M70): 2.69
Th-T fluorescence of Aβ42 (sheet Fig. 7a), mean of three wells (head suffix _10 (concentration 10), reading M71): 2.719
Th-T fluorescence of Aβ42 (sheet Fig. 7a), mean of three wells (head suffix _10 (concentration 10), reading M72): 2.755
Th-T fluorescence of Aβ42 (sheet Fig. 7a), mean of three wells (head suffix _10 (concentration 10), reading M73): 2.763
Th-T fluorescence of Aβ42 (sheet Fig. 7a), mean of three wells (head suffix _10 (concentration 10), reading M74): 2.748
Th-T fluorescence of Aβ42 (sheet Fig. 7a), mean of three wells (head suffix _10 (concentration 10), reading M75): 2.779
Th-T fluorescence of Aβ42 (sheet Fig. 7a), mean of three wells (head suffix _10 (concentration 10), reading M76): 2.777
Th-T fluorescence of Aβ42 (sheet Fig. 7a), mean of three wells (head suffix _10 (concentration 10), reading M77): 2.827
Th-T fluorescence of Aβ42 (sheet Fig. 7a), mean of three wells (head suffix _10 (concentration 10), reading M78): 2.836
Th-T fluorescence of Aβ42 (sheet Fig. 7a), mean of three wells (head suffix _10 (concentration 10), reading M79): 2.796
Th-T fluorescence of Aβ42 (sheet Fig. 7a), mean of three wells (head suffix _10 (concentration 10), reading M80): 2.789
Th-T fluorescence of Aβ42 (sheet Fig. 7a), mean of three wells (head suffix _10 (concentration 10), reading M81): 2.809
Th-T fluorescence of Aβ42 (sheet Fig. 7a), mean of three wells (head suffix _10 (concentration 10), reading M82): 2.8409
Th-T fluorescence of Aβ42 (sheet Fig. 7a), mean of three wells (head suffix _10 (concentration 10), reading M83): 2.8356
Th-T fluorescence of Aβ42 (sheet Fig. 7a), mean of three wells (head suffix _10 (concentration 10), reading M84): 2.801
Th-T fluorescence of Aβ42 (sheet Fig. 7a), mean of three wells (head suffix _20 (concentration 20), reading M63): 2.081
Th-T fluorescence of Aβ42 (sheet Fig. 7a), mean of three wells (head suffix _20 (concentration 20), reading M64): 2.033
Th-T fluorescence of Aβ42 (sheet Fig. 7a), mean of three wells (head suffix _20 (concentration 20), reading M65): 2.056
Th-T fluorescence of Aβ42 (sheet Fig. 7a), mean of three wells (head suffix _20 (concentration 20), reading M66): 1.992
Th-T fluorescence of Aβ42 (sheet Fig. 7a), mean of three wells (head suffix _20 (concentration 20), reading M67): 2.022
Th-T fluorescence of Aβ42 (sheet Fig. 7a), mean of three wells (head suffix _20 (concentration 20), reading M68): 2.054
Th-T fluorescence of Aβ42 (sheet Fig. 7a), mean of three wells (head suffix _20 (concentration 20), reading M69): 2.0412
Th-T fluorescence of Aβ42 (sheet Fig. 7a), mean of three wells (head suffix _20 (concentration 20), reading M70): 2.012
Th-T fluorescence of Aβ42 (sheet Fig. 7a), mean of three wells (head suffix _20 (concentration 20), reading M71): 1.97
Th-T fluorescence of Aβ42 (sheet Fig. 7a), mean of three wells (head suffix _20 (concentration 20), reading M72): 1.988
Th-T fluorescence of Aβ42 (sheet Fig. 7a), mean of three wells (head suffix _20 (concentration 20), reading M73): 1.972
Th-T fluorescence of Aβ42 (sheet Fig. 7a), mean of three wells (head suffix _20 (concentration 20), reading M74): 1.9541
Th-T fluorescence of Aβ42 (sheet Fig. 7a), mean of three wells (head suffix _20 (concentration 20), reading M75): 1.951
Th-T fluorescence of Aβ42 (sheet Fig. 7a), mean of three wells (head suffix _20 (concentration 20), reading M76): 1.9741
Th-T fluorescence of Aβ42 (sheet Fig. 7a), mean of three wells (head suffix _20 (concentration 20), reading M77): 1.953
Th-T fluorescence of Aβ42 (sheet Fig. 7a), mean of three wells (head suffix _20 (concentration 20), reading M78): 1.933
Th-T fluorescence of Aβ42 (sheet Fig. 7a), mean of three wells (head suffix _20 (concentration 20), reading M79): 1.92
Th-T fluorescence of Aβ42 (sheet Fig. 7a), mean of three wells (head suffix _20 (concentration 20), reading M80): 1.931
Th-T fluorescence of Aβ42 (sheet Fig. 7a), mean of three wells (head suffix _20 (concentration 20), reading M81): 1.911
Th-T fluorescence of Aβ42 (sheet Fig. 7a), mean of three wells (head suffix _20 (concentration 20), reading M82): 1.915
Th-T fluorescence of Aβ42 (sheet Fig. 7a), mean of three wells (head suffix _20 (concentration 20), reading M83): 1.888
Th-T fluorescence of Aβ42 (sheet Fig. 7a), mean of three wells (head suffix _20 (concentration 20), reading M84): 1.889
Th-T fluorescence of Aβ42 (sheet Fig. 7a), mean of three wells (head suffix _50 (concentration 50), reading M63): 3.83
Th-T fluorescence of Aβ42 (sheet Fig. 7a), mean of three wells (head suffix _50 (concentration 50), reading M64): 3.705
Th-T fluorescence of Aβ42 (sheet Fig. 7a), mean of three wells (head suffix _50 (concentration 50), reading M65): 3.586
Th-T fluorescence of Aβ42 (sheet Fig. 7a), mean of three wells (head suffix _50 (concentration 50), reading M66): 3.506
Th-T fluorescence of Aβ42 (sheet Fig. 7a), mean of three wells (head suffix _50 (concentration 50), reading M67): 3.421
Th-T fluorescence of Aβ42 (sheet Fig. 7a), mean of three wells (head suffix _50 (concentration 50), reading M68): 3.307
Th-T fluorescence of Aβ42 (sheet Fig. 7a), mean of three wells (head suffix _50 (concentration 50), reading M69): 3.193
Th-T fluorescence of Aβ42 (sheet Fig. 7a), mean of three wells (head suffix _50 (concentration 50), reading M70): 3.0995
Th-T fluorescence of Aβ42 (sheet Fig. 7a), mean of three wells (head suffix _50 (concentration 50), reading M71): 3.0146
Th-T fluorescence of Aβ42 (sheet Fig. 7a), mean of three wells (head suffix _50 (concentration 50), reading M72): 2.931
